Assay results from article PMC5481270, “Antiparasitic Sesquiterpenes from the Cameroonian Spice Scleria striatinux and Preliminary In Vitro and In Silico DMPK Assessment” (Natural Products and Bioprospecting, 2017).
Converted amounts (≈) assume the structure as drawn. Where two headings read alike, the source gives them in different places. Each block holds one compound with its values, some of them ahead of it.

How the values were obtained:
[1] = system: Plasmodium falciparum NF54 (chloroquine-sensitive); assay: Antiplasmodial [3H] hypoxanthine incorporation assay, NF54 strain; format: cell-based; details: for IC50: Plasmodium falciparum
Source text: (§1) The antiplasmodial testing of the extracts was run in duplicate. The method was based upon the [^3H] hypoxanthine incorporation assay, as described by Desjardins and modified by Ridley and the data fitted to generate IC50 and IC90 values, corresponding to the concentrations required to cause 50 and 90% inhibition of parasite growth respectively. The Plasmodium falciparum clones used for the testing were W-2 and D-6. W-2 strain otherwise known as the Indochina clone is known to be resistant to chloroquine, pyrimethamine, sulfadoxine and quinine. Meanwhile the D-6 otherwise known as the Sierra Leonian clone is resistant to mefloquine but sensitive to the above named drugs. Chloroquine, quinine and artesunate were used as reference drugs. […] Compounds 1 and 2 (due to their quantity) were subsequently tested against T. cruzi, L. donovani and T. b. rhodensiense, parasites responsible for Chagas disease, leishmaniasis and human African trypanosomiasis (sleeping sickness) respectively with Benznidazole, Miltefosine and Melarsoprol included as reference drugs. Cytotoxicity was evaluated using HT-29 (human […] carcinoma) with podophyllotoxin as reference drug.
(§2) The crude S. striatinux extracts (MeOH and CH2Cl2) were tested at the Walter Reed Army Institute of Research (WRAIR), Washington. DC. […] The method used for antiplasmodial testing, was based upon [^3H] hypoxanthine incorporation assay, previously described in the literature. Both chloroquine-sensitive (NF54, D6) and chloroquine-resistant (K1, W2) strains and chloroquine, quinine and artesunate used as positive references. L. donovani MHOM-ET-67/L82 (obtained from the spleen of an infected hamster and grown in axenic cultures) was used for the antileishmanial testing while T. brucei squib 427 strain (suramin-sensitive) was used for the antitrypanosomal testing. Cytotoxicity test was done using HT-29 (human […] carcinoma), with podophyllotoxin included as reference drug at a concentration of 0.1 μg/mL.

[2] = system: Plasmodium falciparum W-2 (chloroquine-resistant, Indochina clone); assay: Antiplasmodial [3H] hypoxanthine incorporation assay, W2 clone; format: cell-based
Source text: as §1, §2

[3] = system: Plasmodium falciparum D-6 (chloroquine-sensitive, Sierra Leonian clone); assay: Antiplasmodial [3H] hypoxanthine incorporation assay, D6 clone; format: cell-based
Source text: as §1, §2

[4] = system: Plasmodium falciparum K1 (chloroquine-resistant); assay: Antiplasmodial [3H] hypoxanthine incorporation assay, K1 strain; format: cell-based; details: P. falciparum K1, results from STI
Source text: as §1
(§3) The crude S. striatinux extracts (MeOH and CH2Cl2) were tested at the Walter Reed Army Institute of Research (WRAIR), Washington. DC. […]

T. cruzi = assay: Antitrypanosomal testing, T. cruzi; format: cell-based, Trypanosoma cruzi; details: calculated versus cytotoxicity (HT-29)
Source text: as §1, §3

[5] = system: L. donovani MHOM-ET-67/L82; assay: Antileishmanial testing; format: cell-based, Leishmania donovani; details: calculated versus cytotoxicity (HT-29)
Source text: as §1, §3

T. b. rhodesiense = assay: Antitrypanosomal testing, T. b. rhodesiense; format: cell-based, Trypanosoma brucei rhodesiense; details: calculated versus cytotoxicity (HT-29)
Source text: as §1, §3

[6] = Kinetic solubility, turbidimetric method (nephelometry); format: physicochemical; details: kinetic from dmso stock, 1% DMSO
Protocol: The solubility of the compounds was estimated via the turbidimetric method using standard test buffers (pH 2.0 and pH 6.5) as previously described. […] There was no significant change in ionization in the molecule across this pH range.
(§4) The kinetic solubility of test compounds was examined by spiking compound in DMSO into either pH 6.5 phosphate buffer or 0.01 M HCl (approximately pH 2.0) with the final DMSO concentration being 1%. Samples were then analysed via nephelometry to determine a solubility range [23]. Effective log D values were measured using a chromatographic method employing a SUPELCOSIL LC-ABZ column using an octanol saturated mobile phase at pH 7.4 [23]. Theoretical physicochemical values were determined using the ACD logD suite of software programs. The molecular weight (MW) should ideally be ≤500 for good membrane permeability, while the hydrogen bond donor/acceptor properties should be respectively ≤5 and ≤10 respectively. The number of single bonds that are not in a ring or constrained system and are not bonded to a hydrogen atom (often referred to as the number of rotatable single bonds) should be ≤10 for acceptable oral bioavailability. The polar surface area (PSA) was calculated using a simplified 2-dimensional modeling approach, which has been validated against a more sophisticated 3-dimentional modeling strategy. For acceptable oral drug absorption and membrane permeability, the PSA value should be ≤120 Å^2. […] The 1-octanol/water partition coefficient were calculated for ionisable compounds. The values were calculated on the basis of log P and pKa values. Log D values are quoted with respect to a relevant pH, thereby providing a partition coefficient profile under physiologically relevant conditions.

[7] = Chromatographic eLogD technique; format: physicochemical; details: for chromatographic logD: SUPELCOSIL LC-ABZ column with octanol saturated mobile phase, pH 7.4
Protocol: The partition coefficients of the two compounds were measured via the previously described chromatographic technique. […] The LogD7.4 value for compound 2 of 0.35 is towards the lower end of the scale normally associated with “drug-like” molecules. […] For compound 2, parameters were also calculated for its terminal aldehyde tautomer, 2a, which is presumed to be the major form of the compound. The overall calculated parameters fall within the ranges associated with “drug-like” molecules.
as §4

[8] = Metabolic stability in human liver microsomes; format: in vitro ADME; details: for Metabolites detected: LCMS; for microsomal CLint at 2 µM: NADPH dependent degradation, 37 °C, read-out: In vitro CL int; for Microsome predicted E H (hepatic extraction ratio): Q = 20.7 mL/min/kg; for CLint scaled at 2 µM: scaled from in vitro CL int, read-out: Microsome predicted CL int
Source text: The objective here was to determine the in vitro metabolic stability of these two compounds using human liver microsomes as a preliminary indication of their likely in vivo metabolic clearance and potential metabolic products. The method used was as outlined in Obach. […] The compounds maybe susceptible to […] in more complicated test systems based on their structure, since both compounds 1 and 2 contain an α, β-unsaturated ketone moiety with the potential to act as a Michael acceptor (by forming adducts with endogenous nucleophiles such as glutathione). However, this was not investigated and would be the subject of future studies in which we hope to use a simple chemical system (i.e., in aqueous buffer containing free glutathione) or examining the extent of degradation in whole blood.
Test compounds (2 µM) were incubated at 37 °C with human liver microsomes [purchased from BD Gentest (Woburn, MA) using microsome lot # 41207]. The reaction was initiated by the addition of an NADPH-regenerating system (i.e. NADPH is the cofactor required for CYP450-mediated metabolism) and quenched at various time points over the incubation period by the addition of acetonitrile. Additional samples co-activated by NADPH and UDPGA (the co-factor for glucoronidation), were included in the incubation for the qualitative assessment of the potential for glucoronide formation. The relative loss of parent compound and formation of metabolic products was determined using a single quadrupole LCMS instrument (Waters, Manchester, UK).
Test compound concentration versus time data was fitted to an exponential decay function to determine the first-order rate constant for substrate depletion (k). Each substrate depletion rate constant was then used to calculate: (1) an initial in vitro clearance value (in vitro, CL int,in vitro); (2) an intrinsic clearance value (CL int); and (3) a hepatic extraction ratio (E H)1 CLint,invitro=k/microsomalproteincontent(0.4mgprotein/mL) 2 CLint=CLint,invitro×livermass(g)/bodyweight(kg)×45mgmicrosomalprotein/glivermass 3 EH=CLint/Q+CLint For Eqs.

[9] = P. falciparum NF54, results from STI, read-out: IC50 NF54
[10] = P. falciparum W2, mean of 2–3 determinations, results from WRAIR, read-out: IC50 W2
[11] = P. falciparum D6, mean of 2–3 determinations, results from WRAIR, read-out: IC50 D6
[12] = aqueous buffer, pH 6.5 phosphate buffer, read-out: Solubility pH 6.5
[13] = simulated gastric fluid, pH 2 (0.01 M HCl), read-out: Solubility pH 2

Structure (SMILES): C[C@H]1[C@H](OC(=O)CCC(=O)O)O[C@@H]2O[C@@]3(C)CC[C@H]4[C@H](C)CC[C@@H]1[C@@]24OO3 [Artesunate, reference compound]
IC50 [1, 9]: 0.0019 µg/mL (≈ 0.00494 µM)

Structure (SMILES): CCN(CC)CCCC(C)Nc1ccnc2cc(Cl)ccc12 (centres unmarked) [Chloroquine, reference compound]
IC50 ([2]; W2, read-out: IC50 W2): 0.084 µg/mL (≈ 0.263 µM) | IC50 ([3]; D6, read-out: IC50 D6): 0.003 µg/mL (≈ 0.00938 µM) | IC50 ([1]; NF54, read-out: IC50 NF54): 0.0023 µg/mL (≈ 0.00719 µM)

Structure (SMILES): C/C(=C\CO)[C@H]1C[C@H]2C(C)(C)C(=O)C=C[C@]2(C)OO1 [Compound 1, okundoperoxide]
IC50 [2, 10]: 0.268 µg/mL (≈ 1.01 µM) | IC50 [3, 11]: 0.195 µg/mL (≈ 0.732 µM) | IC50 [4]: 0.661 µg/mL (≈ 2.48 µM) | IC50 [1, 9]: 0.304 µg/mL (≈ 1.14 µM) | SI (selective index) T. cruzi (T. cruzi): 1 | SI (selective index) L. donovani [5]: 11.4 | SI (selective index) T. b. rhod (T. b. rhodesiense): 3.4 | solubility [6, 12]: > 100 µg/mL | solubility [6, 13]: > 100 µg/mL | elogD pH 7.4 [7]: 1.71 | chromatographic logD [7]: 1.71 | Metabolites detected [8]: None detected | microsomal CLint at 2 µM [8]: 12.3 µL/min/mg | Microsome predicted E H (hepatic extraction ratio) [8]: 0.41 | CLint scaled at 2 µM [8]: 14.3 mL/min/kg

Structure (SMILES): C/C(=C\CO)C(=O)C[C@H]1C(C)(C)C(=O)C=C[C@]1(C)O [Compound 2, sclerienone C]
IC50 [2, 10]: 0.354 µg/mL (≈ 1.33 µM) | IC50 [3, 11]: 0.267 µg/mL (≈ 1 µM) | IC50 [4]: 0.511 µg/mL (≈ 1.92 µM) | IC50 [1, 9]: 0.439 µg/mL (≈ 1.65 µM) | SI (selective index) T. cruzi (T. cruzi): 0.74 | SI (selective index) L. donovani [5]: 5.9 | SI (selective index) T. b. rhod (T. b. rhodesiense): 8.3 | solubility [6, 12]: > 100 µg/mL | solubility [6, 13]: 50 to 100 µg/mL (≈ 188 to 375 µM) | elogD pH 7.4 [7]: 0.35 | chromatographic logD [7]: 0.35 | Metabolites detected [8]: None detected | microsomal CLint at 2 µM [8]: 7.4 µL/min/mg | Microsome predicted E H (hepatic extraction ratio) [8]: 0.29 | CLint scaled at 2 µM [8]: 8.6 mL/min/kg

Further lines, results first:

IC50 [2, 10]: 0.46 µg/mL (≈ 1.09 µM) | IC50 [3, 11]: 0.539 µg/mL (≈ 1.28 µM) | IC50 [1, 9]: > 1 µg/mL
Structure (SMILES): CCCCCCCCCC(=O)OC/C=C(\C)C(=O)C[C@H]1C(C)(C)C(=O)C=C[C@]1(C)O [Compound 3]

IC50 [1, 9]: > 1 µg/mL
Structure (SMILES): C=CC(C)(O)C(=O)C[C@H]1C(C)(C)C(=O)C=C[C@]1(C)O (some centres unmarked) [Compound 4]

IC50 NF54 ([1]; P. falciparum NF54, results from STI): >1 µg/mL
Structure (SMILES): C=CC(C)(O)C(=O)C[C@H]1C(C)(C)C(=O)C=C[C@]1(C)O (some centres unmarked) [Compound 5]

IC50 [2, 10]: 0.47 µg/mL (≈ 1.76 µM) | IC50 [3, 11]: 0.483 µg/mL (≈ 1.81 µM) | IC50 [1, 9]: > 1 µg/mL
Structure (SMILES): C=CC(C)(O)C1C[C@H]2C(C)(C)C(=O)C=C[C@]2(C)OO1 (some centres unmarked) [Compound 6]

IC50 [2, 10]: 0.097 µg/mL (≈ 0.299 µM) | IC50 [3, 11]: 0.027 µg/mL (≈ 0.0832 µM)
Structure (SMILES): C=C[C@H]1C[N@@]2CC[C@H]1C[C@H]2[C@H](O)c1ccnc2ccc(OC)cc12 [Quinine, reference compound]
